The values below are quoted from earlier work in patent US20040097481A1, “Water-soluble mesoporphyrin compounds and methods of preparation” (priority 2002, published 2004).

For the data set the following is noted: product of the above-referenced known preparation methods.

Regarding `CCC1=C(C)c2cc3[n-]c(cc4[n-]c(cc5nc(cc1n2)C(C)=C5CC)c(C)c4CCC(=O)O)c(CCC(=O)O)c3C.[Cl-].[Cl-].[Sn+4]` [stannsoporfin, Tin (IV) mesoporphyrin IX chloride], the Water solubility result is listed as “non-water soluble”.
